Data reported in patent US6703424B2, “Dispersible compositions containing L-DOPA ethyl ester” (Teva Pharmaceutical Industries, Ltgd., priority 1998, dated 2004).

Tests used:
Format in all cases: physicochemical
[1] = Dissolution test for L-DOPA ethyl ester/carbidopa dispersible tablets in water (USP dissolution apparatus, HPLC-UV); settings: 100 ml purified water, room temperature, paddles 200 rpm
Method: The dissolution of L-DOPA ethyl ester and carbidopa dispersible tablets was measured in water at room temperature according to the following methodology which was designed to simulate the administration of these tablets to patients. The recommended use is to place a tablet (384 mg) for a few seconds in about 100 mls of water, and to dissolve while swirling or stirring. The suspension should be drunk within 30 minutes. In order to automate the measurement, a USP 6-Pot Dissolution Apparatus is used. Each of 6 tablets are dissolved in 100 ml of purified water in a 200 ml vessel at room temperature (23±2° C.). This is the minimum volume which may be used with the USP Dissolution Apparatus. The solutions are stirred with paddles rotating at 200 rpm, which simulates the turbulence caused when the solution is stirred in a cup, with a teaspoon. […] In this experiment specifically, the amount of L-DOPA ethyl ester or carbidopa is determined by using a 10 cm C18 column, based on 3 μ-diameter spherical silica particles with 100 Å pore size. The elution solvents comprise a gradient of acetonitrile and phosphate buffer with ion-pairing reagent (at pH 2.7). The detection technique is ultraviolet absorption at 280 nm, the wavelength of maximum absorption for both L-DOPA ethyl ester and Carbidopa.

[2] = L-DOPA ethyl ester degradation in solution and tablets, measured as level of L-DOPA over six months; settings: oral solution acidified with HCl
Method: A comparison of L-DOPA ethyl ester (LDEE) degradation in LDEE oral solution (4° C.), and in two environmental conditions of LDEE and Carbidopa dispersible tablets (at 25° C./60% RH and at 40° C./75% RH), was performed by measuring the change in levels of L-DOPA in samples over a six month period of time. L-DOPA is the main degradation product of L-DOPA ethyl ester. Elevation in the level of L-DOPA indicates degradation of LDEE.
The change in the level of L-DOPA with time, expressed as percent of the concentration of LDEE in the sample, was determined in LDEE and Carbidopa Dispersible Tablets (Formulation V, packed in aluminum blisters) and in LDEE oral solution (packed in PET bottles). The composition of the solution was (per 1 ml): 57.1 mg LDEE, 1.2 mg Methylparaben, 1.6 mg Saccharin sodium, 0.1 mg Edetate disodium and cherry flavor. The solution was acidified with HCl to pH 4.0, in which the stability of LDEE is maximal. The solution was kept in refrigeration (4° C.) while the tablets were kept at room conditions (25° C. and 60% relative humidity) or in accelerated stability conditions (40° C. and 75% relative humidity). The results are shown below in Table 4 and in FIG. 4: […]

[3] = Stability of L-DOPA ethyl ester composition on incubation at 40° C.; settings: after incubation for 6 months at 40° C.

| Compound | Percentage of Dissolution ([1]; 1 minute) [%] | Percentage of Dissolution ([1]; 2 minutes) [%] | Percentage of Dissolution ([1]; 5 minutes) [%] | pH at which the stability of LDEE is maximal [2] | L-DOPA ethyl ester content remaining [3] |
| --- | --- | --- | --- | --- | --- |
| C[C@@](Cc1ccc(O)c(O)c1)(NN)C(=O)O [Carbidopa, reference compound] | 64.3 | 87.6 | 101.4 | – | – |
| CCOC(=O)[C@@H](N)Cc1ccc(O)c(O)c1 [L-DOPA Ethyl Ester, L-DOPA ethyl ester] | 67.2 | 90.1 | 102.7 | 4.0 | at least 97 % by weight of the active ingredient |
